Assay results published in the Kinase Knowledgebase extract (Sharma et al. 2016).

biological target: MAPK14 (human) (UniProt Q16539); experiment: Inhibition of MAPK14 Kinase Activity
Sequence (Q16539 whole entry, looked up): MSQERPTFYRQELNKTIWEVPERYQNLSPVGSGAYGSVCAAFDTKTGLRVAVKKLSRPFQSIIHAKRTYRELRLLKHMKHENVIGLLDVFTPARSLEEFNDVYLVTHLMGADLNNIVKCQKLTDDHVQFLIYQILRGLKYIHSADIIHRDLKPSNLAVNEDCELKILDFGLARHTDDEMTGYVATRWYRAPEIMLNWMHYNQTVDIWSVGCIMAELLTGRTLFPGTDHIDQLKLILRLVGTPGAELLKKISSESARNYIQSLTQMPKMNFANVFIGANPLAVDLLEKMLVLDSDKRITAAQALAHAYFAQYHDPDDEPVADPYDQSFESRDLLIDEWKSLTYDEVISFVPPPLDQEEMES

IC50, < 2000 nM:
Cc1cc(C(=O)c2c(NC3CCN(C)CC3)sc3c2ccc(=O)n3-c2ccc(F)cc2)ccc1F
O=C(c1ccccc1)c1c(C(=O)N2CCC[C@H]2CO)sc2c1ccc(=O)n2-c1ccccc1
CC(=O)Nc1sc2c(ccc(=O)n2-c2ccccc2)c1C(=O)c1ccccc1F
Nc1sc2c(ccc(=O)n2-c2ccccc2)c1C(=O)c1ccc(OC(F)(F)F)cc1
CN(C)C(=O)Nc1sc2c(ccc(=O)n2-c2ccccc2)c1C(=O)c1ccccc1
CC(=O)Nc1sc2c(ccc(=O)n2-c2ccccc2)c1C(=O)c1cccc(OC(F)F)c1
Nc1sc2c(ccc(=O)n2-c2ccccc2)c1C(=O)c1ccc(F)c(Cl)c1
Cc1cccc(C(=O)c2c(NC3CCN(C)CC3)sc3c2ccc(=O)n3-c2ccccc2)c1
CC(=O)Nc1sc2c(ccc(=O)n2-c2ccccc2)c1C(=O)c1cccc(Br)c1
Cc1ccccc1C(=O)c1c(N)sc2c1ccc(=O)n2-c1ccccc1
CC(C)N[C@H]1CCN(C(=O)Nc2sc3c(ccc(=O)n3-c3ccccc3)c2C(=O)c2ccccc2)C1
Cc1cc(C(=O)c2c(NC(=O)NC(C)(C)CO)sc3c2ccc(=O)n3-c2ccccc2)ccc1F
Nc1sc2c(ccc(=O)n2-c2ccccc2F)c1C(=O)c1ccccc1
O=C(c1cccc(C(F)(F)F)c1)c1c(NC(=O)C2CCNCC2)sc2c1ccc(=O)n2-c1ccccc1
Cc1cc(C(=O)c2c(NC(=O)C3CCN(C)CC3)sc3c2ccc(=O)n3-c2ccccc2F)ccc1F
CCOC(=O)c1sc2c(ccc(=O)n2-c2ccccc2)c1C(=O)c1cccc(C)c1
Nc1sc2c(ccc(=O)n2-c2ccccc2)c1C(=O)c1cccc(F)c1
CC(=O)Nc1sc2c(ccc(=O)n2CC2CC2)c1C(=O)c1ccc(F)c(C)c1
CNC(=O)CNc1sc2c(ccc(=O)n2-c2ccccc2)c1C(=O)c1ccccc1
O=C(c1ccccc1)c1c(NC(=O)C2CCNCC2)sc2c1ccc(=O)n2-c1ccccc1
O=C(c1ccccc1)c1c(NCC2CNC2)sc2c1ccc(=O)n2-c1ccccc1
NC(=O)c1sc2c(ccc(=O)n2-c2ccccc2)c1C(=O)c1ccccc1
Cc1cc(C(=O)c2c(NC(=O)N3CCN(C)CC3)sc3c2ccc(=O)n3-c2ccccc2)ccc1F
CN1CCC[C@H](Nc2sc3c(ccc(=O)n3-c3ccccc3)c2C(=O)c2ccccc2)C1
O=C(c1ccccc1)c1c(C(=O)N2CCCC2)sc2c1ccc(=O)n2-c1ccccc1
Cc1cc(C(=O)c2c(N)sc3c2ccc(=O)n3CC2CC2)ccc1F
CN1CC[C@H](Nc2sc3c(ccc(=O)n3-c3ccccc3)c2C(=O)c2ccccc2)C1
Nc1sc2c(ccc(=O)n2-c2ccccc2)c1C(=O)c1ccccc1OC(F)F
Cc1cc(C(=O)c2c(N)sc3c2ccc(=O)n3-c2ccccc2F)ccc1F
C=CCNC(=O)Nc1sc2c(ccc(=O)n2-c2ccccc2)c1C(=O)c1cccc(C)c1
Cc1cc(C(=O)c2c(N[C@H]3CCNC3)sc3c2ccc(=O)n3-c2ccccc2)ccc1F
Cc1ccc(-n2c(=O)ccc3c(C(=O)c4ccc(F)c(C)c4)c(NC4CNC4)sc32)cc1
O=C(c1ccccc1)c1c(NC2CNC2)sc2c1ccc(=O)n2CC1CC1
Cc1cc(C(=O)c2c(N[C@H]3CCN(C)C3)sc3c2ccc(=O)n3-c2ccccc2)ccc1F
CCN1CC(Nc2sc3c(ccc(=O)n3-c3ccccc3)c2C(=O)c2ccccc2)C1
N[C@@H]1CCN(C(=O)Nc2sc3c(ccc(=O)n3-c3ccccc3)c2C(=O)c2ccccc2)C1
O=C(O)c1sc2c(ccc(=O)n2-c2ccccc2)c1C(=O)c1ccccc1
NC(=O)CCNc1sc2c(ccc(=O)n2-c2ccccc2)c1C(=O)c1ccccc1
CN(C)[C@H]1CCN(C(=O)Nc2sc3c(ccc(=O)n3-c3ccccc3)c2C(=O)c2ccccc2)C1
Nc1sc2c(ccc(=O)n2-c2ccccc2)c1C(=O)c1cccc(Br)c1
Cc1cccc(C(=O)c2csc3c2ccc(=O)n3-c2ccccc2)c1
O=C(c1ccccc1)c1c(NC2CNC2)sc2c1ccc(=O)n2-c1ccccc1
Cc1cccc(C(=O)c2c(N)sc3c2ccc(=O)n3-c2ccccc2)n1
O=C(c1ccccc1)c1c(N[C@@H]2CCCNC2)sc2c1ccc(=O)n2-c1ccccc1
Cc1cccc(C(=O)c2c(NC3CNC3)sc3c2ccc(=O)n3-c2ccccc2)c1
CC(=O)Nc1sc2c(ccc(=O)n2-c2ccccc2Cl)c1C(=O)c1ccccc1
CN1CC[C@@H](NC(=O)Nc2sc3c(ccc(=O)n3-c3ccccc3)c2C(=O)c2ccccc2)C1
O=C(c1ccccc1)c1c(NC(=O)[C@H]2CCCN2)sc2c1ccc(=O)n2-c1ccccc1
Nc1sc2c(ccc(=O)n2-c2ccccc2)c1C(=O)c1ccc(OC(F)F)cc1
NC(=O)c1sc2c(ccc(=O)n2-c2ccccc2)c1C(=O)c1ccc(F)c(Cl)c1
CN1CCC[C@H]1C(=O)Nc1sc2c(ccc(=O)n2-c2ccccc2)c1C(=O)c1ccccc1
CC(=O)Nc1sc2c(ccc(=O)n2-c2ccccc2)c1C(=O)c1ccc(F)c(Cl)c1
CC(=O)Nc1sc2c(ccc(=O)n2-c2ccccc2Cl)c1C(=O)c1ccc(F)c(C)c1
Cc1cccc(C(=O)c2c(NC(=O)OC(C)(C)C)sc3c2ccc(=O)n3-c2ccccc2)c1
CCOC(=O)c1sc2c(ccc(=O)n2CC2CC2)c1C(=O)c1ccccc1
COc1cccc(C(=O)c2c(NC(C)=O)sc3c2ccc(=O)n3-c2ccccc2)c1
CCOc1ccc(C(=O)c2c(N)sc3c2ccc(=O)n3-c2ccccc2)cc1C
Cc1cccc(C(=O)c2c(NS(C)(=O)=O)sc3c2ccc(=O)n3-c2ccccc2)c1
O=C(c1ccccc1)c1c(NC(=O)N2CC[C@@H](O)C2)sc2c1ccc(=O)n2-c1ccccc1
N#Cc1ccccc1C(=O)c1c(N)sc2c1ccc(=O)n2-c1ccccc1
O=C(c1ccccc1)c1c(NC(=O)C2CCNCC2)sc2c1ccc(=O)n2CC1CC1
Nc1sc2c(ccc(=O)n2-c2ccccc2)c1C(=O)c1cccs1
CN1CC(Nc2sc3c(ccc(=O)n3-c3ccccc3)c2C(=O)c2ccccc2)C1
Cc1cc(C(=O)c2c(N)sc3c2ccc(=O)n3-c2ccc(F)cc2)ccc1F
Cc1cc(C(=O)c2c(NC3CN(C(C)C)C3)sc3c2ccc(=O)n3-c2ccccc2)ccc1F
CC(=O)Nc1sc2c(ccc(=O)n2-c2ccccc2F)c1C(=O)c1ccc(F)c(C)c1
CC(=O)Nc1sc2c(ccc(=O)n2-c2ccccc2)c1C(=O)c1cccc(Cl)c1
CCN1CC(Nc2sc3c(ccc(=O)n3-c3ccccc3)c2C(=O)c2ccc(F)c(C)c2)C1
Cc1cccc(C(=O)c2c(N)sc3c2ccc(=O)n3-c2ccccc2F)c1
CC(C)(C)OC(=O)Nc1sc2c(ccc(=O)n2-c2ccccc2)c1C(=O)c1ccccc1
Cc1cc(C(=O)c2c(NC(=O)N3CC[C@@H](N(C)C)C3)sc3c2ccc(=O)n3-c2ccccc2)ccc1F
Cc1cc(C(=O)c2c(NC3CCNCC3)sc3c2ccc(=O)n3-c2ccccc2)ccc1F
Nc1sc2c(ccc(=O)n2CC2CC2)c1C(=O)c1ccccc1
Nc1sc2c(ccc(=O)n2-c2ccccc2)c1C(=O)c1ccc(C(F)(F)F)cc1
Cc1cc(C(=O)c2c(NC(=O)N3CC[C@H](N(C)C)C3)sc3c2ccc(=O)n3-c2ccccc2)ccc1F
COc1ccccc1C(=O)c1c(NC(C)=O)sc2c1ccc(=O)n2-c1ccccc1
CN(C)[C@@H]1CCN(C(=O)Nc2sc3c(ccc(=O)n3-c3ccccc3)c2C(=O)c2ccccc2)C1
Cc1cc(C(=O)c2c(NC3CNC3)sc3c2ccc(=O)n3CC2CC2)ccc1F
Cc1cccc(C(=O)c2c(NC3CN(C)C3)sc3c2ccc(=O)n3-c2ccccc2)c1
COc1ccccc1C(=O)c1c(N)sc2c1ccc(=O)n2-c1ccccc1
CN1CC(CNc2sc3c(ccc(=O)n3-c3ccccc3)c2C(=O)c2ccccc2)C1
N[C@H]1CCN(C(=O)Nc2sc3c(ccc(=O)n3-c3ccccc3)c2C(=O)c2ccccc2)C1
O=C(c1ccccc1)c1c(NC2CCNCC2)sc2c1ccc(=O)n2-c1ccccc1
Nc1sc2c(ccc(=O)n2-c2ccccc2)c1C(=O)c1cccc(Cl)c1
O=C(c1ccccc1)c1c(N2CCOCC2)sc2c1ccc(=O)n2-c1ccccc1
Cc1cc(C(=O)c2c(NC(=O)C3CCN(C)CC3)sc3c2ccc(=O)n3-c2c(F)cccc2F)ccc1F
Cc1cc(C(=O)c2c(N[C@@H]3CCN(C)C3)sc3c2ccc(=O)n3-c2ccccc2)ccc1F
